This assay has as its target T1, calcium-sensing receptor (CaSR) (Rattus norvegicus, UniProt P48442).
T1 sequence (P48442 20-1079): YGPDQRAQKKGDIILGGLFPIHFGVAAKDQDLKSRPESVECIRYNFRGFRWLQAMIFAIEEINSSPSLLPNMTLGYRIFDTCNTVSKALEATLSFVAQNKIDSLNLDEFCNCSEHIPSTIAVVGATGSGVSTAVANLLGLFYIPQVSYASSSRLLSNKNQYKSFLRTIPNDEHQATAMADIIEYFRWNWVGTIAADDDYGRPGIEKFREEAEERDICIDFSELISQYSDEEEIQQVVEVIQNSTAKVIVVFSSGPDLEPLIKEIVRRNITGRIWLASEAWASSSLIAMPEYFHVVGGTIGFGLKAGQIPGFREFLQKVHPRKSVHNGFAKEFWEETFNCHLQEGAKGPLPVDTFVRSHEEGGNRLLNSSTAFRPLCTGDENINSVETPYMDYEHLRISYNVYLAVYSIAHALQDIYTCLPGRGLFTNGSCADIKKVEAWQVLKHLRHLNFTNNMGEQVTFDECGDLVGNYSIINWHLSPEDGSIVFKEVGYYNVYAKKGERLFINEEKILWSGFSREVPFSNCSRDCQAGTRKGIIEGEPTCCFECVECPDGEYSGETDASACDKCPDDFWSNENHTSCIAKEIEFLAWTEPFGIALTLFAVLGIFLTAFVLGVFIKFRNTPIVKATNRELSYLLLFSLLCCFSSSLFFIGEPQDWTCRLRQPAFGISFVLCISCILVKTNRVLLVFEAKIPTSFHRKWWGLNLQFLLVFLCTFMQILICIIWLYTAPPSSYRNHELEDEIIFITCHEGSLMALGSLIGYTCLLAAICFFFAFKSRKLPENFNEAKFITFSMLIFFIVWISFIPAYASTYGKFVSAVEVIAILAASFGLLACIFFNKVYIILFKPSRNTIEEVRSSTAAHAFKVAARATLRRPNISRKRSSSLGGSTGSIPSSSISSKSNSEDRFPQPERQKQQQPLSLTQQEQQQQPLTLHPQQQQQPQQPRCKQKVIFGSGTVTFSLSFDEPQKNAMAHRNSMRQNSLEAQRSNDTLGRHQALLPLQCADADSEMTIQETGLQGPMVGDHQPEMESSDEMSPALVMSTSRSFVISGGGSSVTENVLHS
Put plainly: inhibition of calcium-stimulated IP1 accumulation in HEK293 cells stably transfected with rat CaSR. In kind it is cell-based.

For one compound, IC50 results are on record in PMC3740522, “Synthesis of the calcilytic ligand NPS 2143” (Beilstein Journal of Organic Chemistry, 2013).

As a reminder, the IC50 is the concentration that gives 50% inhibition. `CC(C)(Cc1ccc2ccccc2c1)NC[C@@H](O)COc1cccc(Cl)c1C#N` [(R)-3, NPS 2143]: the IC50 turned out to be 640 nM.
